Laboratory results reported in patent US20040138193A1, “Oestrogen fatty acid monoester as a hypolipidaemic and antidiabetic agent” (priority 2001, published 2004).

Legend:
Type in all cases: in vivo, rat
lean rats = assay: Lipoprotein separation by ultracentrifugation and lipid composition analysis, lean rats; conditions: 10 μmol/kg daily, vs controls
Text: Codes in bars are: triacylglycerols=white; phospholipids=lines; cholesterol=dots.
Lipoproteins in fresh plasma were fractionated by differential ultracentrifugation in known density media obtained through the addition of KBr. […] These fractions were used for the analysis of protein and lipidic components, and for the estimation of particle size.
Whole plasma, lipoprotein fractions and LPdp were used for the analysis of protein and lipid content. Total protein was estimated with the Bradford method (cf. M. M. Bradford, Anal. Biochem. 1976, vol. 72, pp. 248-254). Total cholesterol was measured in saline with a high-performance cholesterol kit. Triacylglycerol concentrations were measured with a commercial kit and the results were corrected for free glycerol. Phospholipid was quantified by a choline-based method. […] Recoveries for all plasma components (i.e. deviations from the values in whole plasma and those derived from the sum of its content in lipoprotein fractions) were lowest for triacylglycerols (88±3%) and highest for protein (92±3%). Sudan black-prestained serum samples were sepparated by polyacrylamide gel electrophoresis. Separation of lipoprotein classes through centrifugation allowed a detailed analysis of lipoprotein composition as shown in FIGS. 3 and 4.

Wistar female rats = assay: Dose dependence of plasma parameters after 10 days of daily oral gavage in normal Wistar female rats; conditions: for plasma 3-hydroxybutyrate / plasma glucose / plasma insulin / plasma non-esterified fatty acids / plasma total cholesterol / plasma triacylglycerols: female Wistar rats, 10 days
Protocol: Eight groups of 6 normal Wistar female rats each were used. The animals were kept under standard housing conditions and had free access to pellet food and tap water. All the rats received a daily oral gavage of 0.2 ml of sunflower oil through a stomach tube. This oil contained different amounts of oleoyl-estrone so that the rats received daily doses of 0, 0.2, 0.5, 1, 2, 5, 10 or 20 micromols per kg of body weight. After 10 days of daily gavages, the rats were killed and their blood extracted and used to obtain plasma through centrifugation. Plasma samples were used for the analysis of glucose, total cholesterol and triacylglycerols by means of a dry-strip procedure (Spotchem, Menarini, Firenze, Italy), the levels of 3-hydroxybutyrate were measured with the kit 907979 from Boehringer Mannheim (Mannheim, Germany), and non-esterified fatty acids with the kit 1383175 from the same company. Insulin levels were measured through radioimmunoassay (rat insulin kit, Amersham, Amersham, United Kingdom).

[1] = test system: normal-weight adult female Zucker rats (genotype Fa/?); assay: Plasma lipoproteinogram (polyacrylamide gel electrophoresis), normal-weight rats; conditions: 10 micromols per kg daily, 10 days
Protocol: FIG. 1 is a lipoproteinogram of plasma from normal-weight rats (Zucker Fa/?), showing the effect of oleoyl-estrone on lipoprotein distribution. I=intact; C=control; T=treated with oleoyl-estrone; HDL=high-density lipoproteins; LDL=low-density lipoproteins; VLDL=very low-density lipoproteins.
Since treatment with oleoyl-estrone deeply modifies the plasma lipids of rats, an experiment was carried out to determine whether the oral administration of oleoyl-estrone modifies the plasma lipidogram of lean and genetically obese rats. Two groups of animals were used: (1) normal-weight adult female Zucker rats (genotype Fa/?), and (2) genetically obese adult female Zucker rats (genotype fa/fa). In the first group one rat was killed to obtain a sample of blood (intact control); in the second group (obese rats), two intact controls were killed and their blood recovered. […] All blood samples were centrifuged to obtain plasma; plasma proteins were analysed by means of polyacrylamide gel electroforesis (kit Lipofilm, Sebia, Issy les Molineaux, France), lipids were stained with Sudan black.

[2] = Wistar female rats, doses 0.2-20 micromols per kg, ANOVA P<0.05

Compound: CCCCCCCC/C=C\CCCCCCCC(=O)Oc1ccc2c(c1)CC[C@@H]1[C@@H]2CC[C@]2(C)C(=O)CC[C@@H]12 [oleoyl-estrone]
- change in lipoprotein composition (lean rats): little change
- change of cholesterol in the HDL fraction (lean rats): decreased most
- change of total phospholipid levels in lipoprotein-depleted plasma (lean rats): decrease
- doses giving lower insulin values than controls (Wistar female rats; Wistar female rats, 10 days oral gavage): ≥ 1 micromol/kg and day
- change in circulating levels of 3-hydroxybutyrate (Wistar female rats; [2]): no globally significant changes
- change in circulating levels of glucose (Wistar female rats; [2]): no globally significant changes
- change in circulating levels of non-esterified fatty acids (Wistar female rats; [2]): no globally significant changes
- change in circulating levels of triacylglycerols (Wistar female rats; [2]): no globally significant changes
- drop in insulin levels (Wistar female rats; Wistar female rats, vs controls): significant
- plasma 3-hydroxybutyrate (Wistar female rats; daily gavage 0.2 μmol/kg · d): 291 ± 40 µM
- plasma glucose (Wistar female rats; daily gavage 0.2 μmol/kg · d): 6.35 ± 0.47 mM
- plasma insulin (Wistar female rats; daily gavage 0.2 μmol/kg · d): 0.624 nM
- plasma non-esterified fatty acids (Wistar female rats; daily gavage 0.2 μmol/kg · d): 184 ± 31 µM
- plasma total cholesterol (Wistar female rats; daily gavage 0.2 μmol/kg · d): 1.21 ± 0.12 mM
- plasma triacylglycerols (Wistar female rats; daily gavage 0.2 μmol/kg · d): 1.57 ± 0.43 mM
- plasma 3-hydroxybutyrate (Wistar female rats; daily gavage 0.5 μmol/kg · d): 189 ± 41 µM
- plasma glucose (Wistar female rats; daily gavage 0.5 μmol/kg · d): 5.74 ± 0.31 mM
- plasma insulin (Wistar female rats; daily gavage 0.5 μmol/kg · d): 0.497 ± 0.067 nM
- plasma non-esterified fatty acids (Wistar female rats; daily gavage 0.5 μmol/kg · d): 273 ± 47 µM
- plasma total cholesterol (Wistar female rats; daily gavage 0.5 μmol/kg · d): 1.02 ± 0.08 mM
- plasma triacylglycerols (Wistar female rats; daily gavage 0.5 μmol/kg · d): 1.79 ± 0.23 mM
- plasma 3-hydroxybutyrate (Wistar female rats; daily gavage 1 μmol/kg · d): 305 ± 56 µM
- plasma glucose (Wistar female rats; daily gavage 1 μmol/kg · d): 5.71 ± 0.46 mM
- plasma insulin (Wistar female rats; daily gavage 1 μmol/kg · d): 0.241 ± 0.044 nM
- plasma non-esterified fatty acids (Wistar female rats; daily gavage 1 μmol/kg · d): 147 ± 30 µM
- plasma total cholesterol (Wistar female rats; daily gavage 1 μmol/kg · d): 1.13 ± 0.15 mM
- plasma triacylglycerols (Wistar female rats; daily gavage 1 μmol/kg · d): 1.26 ± 0.26 mM
- plasma 3-hydroxybutyrate (Wistar female rats; daily gavage 2 μmol/kg · d): 263 ± 27 µM
- plasma glucose (Wistar female rats; daily gavage 2 μmol/kg · d): 5.76 ± 0.20 mM
- plasma insulin (Wistar female rats; daily gavage 2 μmol/kg · d): 0.280 ± 0.036 nM
- plasma non-esterified fatty acids (Wistar female rats; daily gavage 2 μmol/kg · d): 281 ± 44 µM
- plasma total cholesterol (Wistar female rats; daily gavage 2 μmol/kg · d): 1.01 ± 0.27 mM
- plasma triacylglycerols (Wistar female rats; daily gavage 2 μmol/kg · d): 1.70 ± 0.11 mM
- plasma 3-hydroxybutyrate (Wistar female rats; daily gavage 5 μmol/kg · d): 300 ± 64 µM
- plasma glucose (Wistar female rats; daily gavage 5 μmol/kg · d): 5.64 ± 0.21 mM
- plasma insulin (Wistar female rats; daily gavage 5 μmol/kg · d): 0.275 ± 0.053 nM
- plasma non-esterified fatty acids (Wistar female rats; daily gavage 5 μmol/kg · d): 213 ± 48 µM
- plasma total cholesterol (Wistar female rats; daily gavage 5 μmol/kg · d): 1.03 ± 0.13 mM
- plasma triacylglycerols (Wistar female rats; daily gavage 5 μmol/kg · d): 1.91 ± 0.33 mM
- plasma 3-hydroxybutyrate (Wistar female rats; daily gavage 10 μmol/kg · d): 301 ± 42 µM
- plasma glucose (Wistar female rats; daily gavage 10 μmol/kg · d): 5.90 ± 0.31 mM
- plasma insulin (Wistar female rats; daily gavage 10 μmol/kg · d): 0.262 ± 0.050 nM
- plasma non-esterified fatty acids (Wistar female rats; daily gavage 10 μmol/kg · d): 152 ± 24 µM
- plasma total cholesterol (Wistar female rats; daily gavage 10 μmol/kg · d): 0.66 ± 0.09 mM
- plasma triacylglycerols (Wistar female rats; daily gavage 10 μmol/kg · d): 1.39 ± 0.14 mM
- plasma 3-hydroxybutyrate (Wistar female rats; daily gavage 20 μmol/kg · d): 237 ± 47 µM
- plasma glucose (Wistar female rats; daily gavage 20 μmol/kg · d): 5.62 ± 0.20 mM
- plasma insulin (Wistar female rats; daily gavage 20 μmol/kg · d): 0.223 ± 0.041 nM
- plasma non-esterified fatty acids (Wistar female rats; daily gavage 20 μmol/kg · d): 122 ± 39 µM
- plasma total cholesterol (Wistar female rats; daily gavage 20 μmol/kg · d): 0.53 ± 0.05 mM
- plasma triacylglycerols (Wistar female rats; daily gavage 20 μmol/kg · d): 0.92 ± 0.11 mM
- change of VLDLs in lipoproteinogram [1]: marked increase
- change of high density lipoproteins in lipoproteinogram [1]: marked reduction
